# PMC10144566, “Pharmacokinetic Profile Evaluation of Novel Combretastatin Derivative, LASSBio-1920, as a Promising Colorectal Anticancer Agent” (Pharmaceutics, 2023)
# Read-outs that look alike come from different tables or passages of the source.
# Columns and labels:
# [1] = tested on: PC-9 cells; assay: Annexin V/7-AAD apoptosis assay by flow cytometry, PC-9; type: cell-based, human; conditions: 0.75 µM, 48 h, negative control 2.40 ± 0.17%
# Procedure: (§1) The control group received the same amount of vehicle, of which the concentration was kept constant (below 0.5%). Cell treatments were completed in triplicate. CA4 (0.2 or 0.5 µM) was used as the positive control. Stock solutions of the compounds tested were dissolved in DMSO and diluted in the culture medium to obtain the desired concentrations.
# (§2) Apoptosis assay: Apoptosis was analyzed using Annexin V/7-AAD staining followed by flow cytometry. Cells were collected and stained using an Annexin V-PE/7-AAD apoptosis detection kit. Annexin V binds to phosphatidylserine (PS) in apoptosis cells as PS translocates from the inner to the outer leaflet of the cytoplasmic membrane. 7-AAD is a fluorescent intercalator of DNA impermeable to the cell, providing a reliable indication of membrane integrity. Double staining distinguishes between viable, early apoptotic, necrotic, and late apoptotic cells. The resulting fluorescence of annexin V-PE at 583 nm and 7-AAD at 680 nm of every sample was analyzed by flow cytometry. The 7-AAD-positive and annexin V-negative cells were considered necrotic. Annexin V-positive cells (7-AAD-positive and 7-AAD-negative cells) were classified as apoptotic. 7-AAD-negative and annexin V-negative cells were deemed viable.
# [2] = PAMPA-BBB permeability; type: in vitro ADME; conditions: for Papp: PAMPA
# Procedure: (§3) For this, two 96-well plates were placed one above the other, and between them, an artificial hydrophobic polyvinylidene fluoride (PVDF) membrane, which was impregnated with a lipid solution. The top plate works as the donor compartment and the bottom one as the receiver compartment.
# Parallel artificial membrane permeation assay for the blood–brain barrier (PAMPA-BBB): It was performed according to the previously reported [26] method established by Lu and coworkers [27].
# [3] = tested on: HCT-116 cells; assay: Annexin V/7-AAD apoptosis assay by flow cytometry, HCT-116; type: cell-based, human; conditions: 6 µM, 48 h, negative control 5.14 ± 0.61%
# Procedure: as §1, §2
# [4] = tested on: N-87, gastric carcinoma; assay: MTT cytotoxicity assay, N-87; conditions: Homo sapiens, 72 h, read-out: IC50 (95% CI) N-87
# Procedure: (§4) The cytotoxicity of the compounds was determined using the MTT assay [13]. Cells were seeded in 96-well plates as follows: 0.7 × 10^5 cells/well for adherent cancer cells, 0.3 × 10^5 cells/well for suspended cancer cells, and 0.2 × 10^5 cells/well for HPBMCs. […] The control group was treated with the vehicle. […] After incubation, the supernatant was decanted and replaced with fresh medium containing MTT (0.5 mg/mL).
# [5] = tested on: human tumor cell lines (HCT-116, SF-295, PC-3, H-1975, PC-9, N-87); assay: MTT cytotoxicity assay, panel of human tumor cell lines; conditions: 72 h, read-out: IC50 values against all tumor cell lines
# Procedure: as §4
# [6] = tested on: HPBMC, human peripheral blood mononuclear cells; assay: MTT cytotoxicity assay, HPBMC; type: cell-based; conditions: PBMC, 72 h incubation, read-out: IC50 (95% CI) HPBMC
# Procedure: Heparinized blood was collected from healthy, non-smoking donors who had not taken any drugs during the 15 days prior to sampling. Human peripheral blood mononuclear cells (HPBMC) were isolated by a standard density-gradient centrifugation method over Ficoll-Hypaque® media (Merck-Sigma-Aldrich, St. Louis, MO, USA). HPBMC were washed and resuspended in RPMI-1640 medium supplemented with 20% fetal bovine serum, 2 mM glutamine, 100 U/mL penicillin, and 100 µg/mL streptomycin at 37 °C with 5% CO2. Phytohemagglutinin (3%) was added at the beginning of the culture.
# The cytotoxicity of the compounds was determined using the MTT assay. Cells were seeded in 96-well plates as follows: 0.7 × 10^5 cells/well for adherent cancer cells, 0.3 × 10^5 cells/well for suspended cancer cells, and 0.2 × 10^5 cells/well for HPBMCs. The treatments were dissolved in DMSO and added to each well using an automated liquid handler for high-throughput screening (Biomek 3000—Beckman Coulter, Inc., Fullerton, CA, USA) and incubated for either 24, 48, and 72 h. The control group was treated with the vehicle. […] After incubation, the supernatant was decanted and replaced with fresh medium containing MTT (0.5 mg/mL). Three hours later, the MTT’s formazan product was dissolved in 150 µL of pure DMSO, and absorbance was measured at 595 nm (DTX 880 Multimode Detector, Beckman Coulter, Inc., Pasadena, CA, USA).
# Data were presented as mean ± standard error of the mean (SEM) from three independent experiments performed in triplicate, calculated using Prism 8.0 (GraphPad/Intuitive Software for Science, San Diego, CA, USA). The IC50 of the compounds was obtained using a non-linear regression of the cytotoxicity curves.
# [7] = PAMPA-GIT permeability; type: in vitro ADME; conditions: PAMPA-GIT, 5 h, room temperature; read-out: Pe (Experimental)
# Text: as §3
# Parallel artificial membrane permeation assay for gastrointestinal tract (GIT-PAMPA): 1% (w/v) phosphatidylcholine was mixed with dodecane as a lipid solution to impregnate the PVDF membrane between the donor and receiver plates to stimulate intestinal permeability. […] A total of 180 µL of the mixture of PBS and DMSO (v/v 95:5) was added to the recipient plate, and 180 µL of the test solution was added to the donor plate. Immediately and carefully, the donor plate was placed above the receiver plate and incubated for 5 h at room temperature. The solution captured on the receptor plate was removed and subsequently analyzed by a UV detector (SpectraMax 5®—Molecular Devices, Sao Jose, CA, USA). The experiments were performed in quadruplicate.
# [8] = Microsomal (metabolic) stability; type: in vitro ADME; conditions: Wistar rat liver microsomes, with or without NADPH-generating system, 100 µM, up to 120 min
# Procedure: Livers were obtained from male Wistar rats (250 and 300 g) from the Federal University of Ceara (UFC, Fortaleza, Brazil). The livers were maintained in an ice bath and washed with 3 volumes of 0.05 M Tris-HCl and 0.25 M sucrose, pH 7.4. They were then sliced and homogenized in a Potter–Elvehjem glass-Teflon homogenizer. The homogenates were centrifuged for 30 min at 900× g at 4 °C, and the supernatant fraction was centrifuged at 10,000× g for 1 h at 4 °C. The pellet was discarded, and the supernatant fraction was centrifuged at 100,000× g for 1 h at 4 °C. The microsomal fraction in the resulting pellet was recovered. The pellet was washed and resuspended twice in 0.05 M Tris-HCl, condensed into a pellet again by centrifugation for 1 h at 100,000× g at 4 °C and, finally, resuspended in the Tris-HCl buffer. Metabolic assays were carried out with frozen microsomes in Tris–HCl buffer, stored at –80 °C. […]
# The final concentration of DMSO in the incubation mixture was 0.5%. […] The supernatant was analyzed by HPLC (acetonitrile/water 7:3 with 0.1% trifluoroacetic acid) using an internal standard (4-acetylbiphenyl—final concentration of 20 µM). […]
smiles,measurement,setting,value
"COc1cc(C(=O)N/N=C/c2cc3ccccc3s2)cc(OC)c1OC [LASSBio-1920, (E)-N′-(Benzo[b]thiophen-2-ylmethylene)-3,4,5-trimethoxybenzohydrazide]",apoptotic events PC-9 cells,[1],15.49 ± 1.28%
same,Papp,"[2]; PAMPA-BBB classification: absorbed by the Central Nervous System, read-out: CNS Permeability",> 34.7 nm/s
same,Papp,"[2]; PAMPA-BBB, mean, read-out: Pe (Experimental Mean)",115 nm/s
same,Pe (Experimental Mean),"[2]; PAMPA-BBB, mean",11.48 10–6 cm/s
same,Pe1 (Experimental),"[2]; PAMPA-BBB, replicate 1",12.43 10–6 cm/s
same,Pe2 (Experimental),"[2]; PAMPA-BBB, replicate 2",10.53 10–6 cm/s
same,apoptotic HCT-116 cells,[3],12.62 ± 2.26%
same,IC50,[4],0.44 µM
same,IC50,[5],0.06 to 1.68 µM
same,IC50,[6],0.14 µM
same,"Papp at 5 h, 0.5 mM",[7],66 nm/s
same,metabolic stability in liver microsomal fraction,[8],significantly metabolized by the microsomal fraction only in the presence of an NADPH-generating system
